The results in this text go back to PubChem BioAssay AID434951 (Broad Institute, 2010).

The source made the active and inactive calls.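 How the source made its calls: active means a fitted half-maximal concentration EC50 for the rise in nuclear signal no higher than ten times the top dose tested; inconclusive means flat fit with activity between 30% and 70%, or unusable fit; inactive means EC50 beyond ten times the top dose.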

For the experiment, the target named is Hypoxia-inducible factor 1-alpha (Homo sapiens) (UniProt Q16665). Description: HIF pathway activation, GFP-HIF1alpha translocation – imaging, fluorescence, U2OS GFP-HIF1alpha, confirmation (AID 434951). As to conditions: U2OS GFP-HIF1alpha nuclear intensity, high-content imaging.
Sequence of Hypoxia-inducible factor 1-alpha (Homo sapiens) (Q16665 whole entry, looked up): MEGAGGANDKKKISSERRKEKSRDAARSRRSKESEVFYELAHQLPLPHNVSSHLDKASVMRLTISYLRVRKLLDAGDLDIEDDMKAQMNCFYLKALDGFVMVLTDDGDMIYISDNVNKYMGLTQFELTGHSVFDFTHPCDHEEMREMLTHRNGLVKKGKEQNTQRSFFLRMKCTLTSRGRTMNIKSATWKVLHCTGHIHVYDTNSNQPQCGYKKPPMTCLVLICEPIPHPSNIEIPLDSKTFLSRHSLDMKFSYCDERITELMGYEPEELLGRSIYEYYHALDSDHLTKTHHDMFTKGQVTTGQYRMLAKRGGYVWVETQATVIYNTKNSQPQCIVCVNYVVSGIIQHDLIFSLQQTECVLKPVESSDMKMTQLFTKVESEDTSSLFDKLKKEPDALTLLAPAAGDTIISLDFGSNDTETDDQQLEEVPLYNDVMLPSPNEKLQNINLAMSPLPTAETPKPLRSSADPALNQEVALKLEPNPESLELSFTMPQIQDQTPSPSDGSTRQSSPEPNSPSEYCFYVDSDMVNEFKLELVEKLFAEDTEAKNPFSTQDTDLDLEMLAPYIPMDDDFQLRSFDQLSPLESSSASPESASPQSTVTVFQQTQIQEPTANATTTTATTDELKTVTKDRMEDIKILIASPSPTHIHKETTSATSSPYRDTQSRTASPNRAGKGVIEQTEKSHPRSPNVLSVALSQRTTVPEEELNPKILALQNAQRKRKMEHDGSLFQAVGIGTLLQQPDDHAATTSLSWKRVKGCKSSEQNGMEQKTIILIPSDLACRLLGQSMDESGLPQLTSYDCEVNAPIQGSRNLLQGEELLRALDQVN
Regarding `CC[n+]1c(S(=O)(=O)[O-])ccc2ccc(C)cc21`, the EC50 was > 35 µM (inactive).

With `Cc1c(Cl)c([N+](=O)[O-])nn1CC(=O)NC12CC3CC(CC(C3)C1)C2`, the EC50 was > 35 µM (inactive).

Regarding `Cc1ccc(S(=O)(=O)N2CCN(c3ccccn3)CC2)cc1`, the EC50 was > 35 µM (inactive).

As to `CCn1c(SCC(=O)Nc2nncs2)nnc1-c1ccco1`, the EC50 is > 35 µM (inactive).

With `Cc1ccc(S(=O)(=O)/N=C2/NC(=O)/C(=C/c3cc([N+](=O)[O-])ccc3O)S2)cc1`, the EC50 is > 35 µM (inactive).

`CCCC(=O)NC(c1ccc(C)cc1)c1ccc2cccnc2c1O` (stereo not drawn): the EC50 is 7.22 µM.

Consider `S=C(N/N=C/c1cccc2ccccc12)Nc1cccc(Cl)c1`, for which the EC50 was 31.9 µM.

Take `N#CCC(=O)N/N=C/c1ccc(SCC(=O)Nc2ccccc2)o1`: the EC50 is > 35 µM (inactive).

In the case of `Oc1ccc(/C=N/Nc2ccc(C(F)(F)F)cn2)c(O)c1`, the EC50 is 29.8 µM.

Regarding `Cc1ccccc1OCC(=O)Nc1ccc(N2CCN(C)CC2)c(Cl)c1`, the EC50 is > 35 µM (inactive).

As for `CN(C1CCCC1)C1CCN(C(=S)Nc2cc(F)cc(F)c2)CC1`, the EC50 is > 35 µM (inactive).

As for `CN(Cc1cccc(C(F)(F)F)c1)C(=O)C1CCC(=O)N(CC2CCCCC2)C1` (stereo not drawn), the EC50 was > 35 µM (inactive).

For `COC(=O)Cc1ccc(NC(=S)NC(C)(C)C)cc1`, the EC50 is > 35 µM (inactive).

For the compound `O=C(N/N=C/c1cc(Br)ccc1OC(=O)c1ccc(Br)cc1)c1ccncc1`, the EC50 is > 35 µM (inactive).

`O=C(N/N=C/c1cc(Br)cc(Br)c1O)c1ccncc1`: the EC50 was > 35 µM (inactive).

For the compound `COc1ccc2[nH]c(C(=O)N/N=C/c3ccccc3OC)cc2c1`, the EC50 is > 35 µM (inactive).

Take `COC(=O)CC1C(=O)NCCN1C(=O)CSc1nnc(Nc2ccc(OC)cc2)s1` (stereo not drawn): the EC50 was > 35 µM (inactive).

For `COC(=O)/C(=C(/F)SCC(C)=O)C(F)(F)F`, the EC50 is > 35 µM (inactive).

On to `CCCOC(=O)NC1C(NC(=O)OCCC)N(C)C(=O)N1C` (stereo not drawn), for which the EC50 is > 35 µM (inactive).

With `COc1ccc(C(=O)CCNc2ccc(F)cc2)cc1`, the EC50 is > 35 µM (inactive).

For the compound `Cn1ncc(Br)c1NC(=O)CSc1ccc(Cl)cc1`, the EC50 is > 35 µM (inactive).

For the compound `COc1cc2ccccc2cc1C(=O)Nc1ccc(C)cc1`, the EC50 was > 35 µM (inactive).

Take `CCNS(=O)(=O)c1ccc(NC(=O)c2cncc(Br)c2)cc1`: the EC50 was > 35 µM (inactive).

Take `Cc1cc(=O)[nH]c(SCC(=O)Nc2nonc2C)n1`: the EC50 was > 35 µM (inactive).

Take `Oc1cccc(C(Nc2nccs2)c2ccc3cccnc3c2O)c1` (stereo not drawn): the EC50 is 6.93 µM.

For the compound `COC(CN(C(=O)CCl)C(C(=O)NC1CCCCC1)c1ccc(Cl)cc1)OC` (stereo not drawn), the EC50 is 19 µM.

With `Cc1cccc(C(=O)O/N=C(\N)c2ccc(Cl)cc2)c1`, the EC50 is > 35 µM (inactive).

Turning to `Cc1nc2ccccc2n2c(-c3ccccc3)c3c(=O)n(C)c(=O)n(C)c3c12`, the EC50 was > 35 µM (inactive).

For `Nc1ncnc2c1ncn2CCN1CCOCC1`, the EC50 is > 35 µM (inactive).

Consider `O=C(CSc1nnc(-c2ccco2)n1Cc1ccco1)NCc1ccccc1`, for which the EC50 was > 35 µM (inactive).

As for `Cc1ccc(/C=N/NC(=O)c2ccc(Br)o2)s1`, the EC50 was > 35 µM (inactive).

Consider `Cc1ccc(C)c(OCC(=O)O/N=C(\N)c2cccc([N+](=O)[O-])c2)c1`, for which the EC50 is > 35 µM (inactive).

As to `COc1ccc(NC(=S)NCc2cccnc2)cc1`, the EC50 was > 35 µM (inactive).

Regarding `COc1ccc(C2NC(=S)NC3=C2CCCC3=C2SCCS2)cc1` (stereo not drawn), the EC50 was 17.8 µM.

With `Cc1onc(-c2ccccc2)c1NC(=O)N(Cc1ccccc1)C(C)C`, the EC50 was > 35 µM (inactive).

`O=C(CN1CCC(C(=O)c2ccc(Cl)cc2)CC1)Nc1ccc2c(c1)OCCO2`: the EC50 was > 35 µM (inactive).

As to `CCOC(=O)/C(C#N)=C/C=C1\C=Cc2ccccc2N1CC`, the EC50 was > 35 µM (inactive).

Take `COc1ccc(CCNC(=O)c2cc(-c3cccs3)on2)cc1OC`: the EC50 was 7.39 µM.

On to `O/N=C1/C2C3CC4C5C3C1C5C1(OCCO1)C42` (stereo not drawn), for which the EC50 was > 35 µM (inactive).

For `CCSc1cc(C)nc2c(-c3ccccc3)cnn12`, the EC50 was > 35 µM (inactive).

On to `CCOc1ccc(N2CC(C(=O)Nc3ccccc3C(=O)NC3CC3)CC2=O)cc1` (stereo not drawn), for which the EC50 is > 35 µM (inactive).

As to `CC(=O)c1cccc(N(C(=O)c2ccccn2)C(C(=O)NC2CCCCC2)c2ccccc2)c1` (stereo not drawn), the EC50 is > 35 µM (inactive).

For `Cc1ccc(C(=O)Nc2ccc3c(c2)nc(CCNC(=O)c2ccco2)n3C)cc1`, the EC50 was > 35 µM (inactive).

For `COc1ccc(/C=C(\C#N)c2nc3ccccc3[nH]2)cc1O`, the EC50 was > 35 µM (inactive).

On to `O=C(Nc1ccc(Cl)cc1)NN1CC(=O)N(c2cccc(C(F)(F)F)c2)CC1=O`, for which the EC50 was > 35 µM (inactive).

Regarding `O=C(CSC1=NNC(c2ccccn2)S1)Nc1ccc(C(F)(F)F)cc1` (stereo not drawn), the EC50 was 10.4 µM.

Take `CC(Sc1nnc(COc2ccc([N+](=O)[O-])cc2)n1C)C(=O)O` (stereo not drawn): the EC50 was > 35 µM (inactive).

Turning to `O=C(CSCC(=O)Nc1ccccc1)N/N=C/c1c(O)ccc2ccccc12`, the EC50 was 4.45 µM.

`S=c1[nH]nc(-c2ccco2)n1/N=C/c1cccs1`: the EC50 is > 35 µM (inactive).

Consider `CCc1ccc(OCC(=O)Nc2ccncc2)c(Br)c1`, for which the EC50 was > 35 µM (inactive).

Regarding `O=C(N/N=C/c1cc(Br)ccc1O)C(=O)Nc1ccccc1OC(F)(F)C(F)F`, the EC50 is 35.2 µM.

Take `COc1ccccc1OCC(=O)N/N=C/c1c(O)ccc2ccccc12`: the EC50 was 6.2 µM.

Turning to `CCC1CCc2sc(C(=O)O)cc2C1` (stereo not drawn), the EC50 was > 35 µM (inactive).

As to `CCN(CC)S(=O)(=O)c1cccc(C(=O)N/N=C(\C)c2ccc(O)cc2O)c1`, the EC50 is 2.12 µM.

In the case of `Oc1c(C(Nc2cccc(C(F)(F)F)c2)c2ccncc2)ccc2cccnc12` (stereo not drawn), the EC50 is 6.49 µM.

`CCCNC(=S)N1CCCC(c2nc3ccccc3[nH]2)C1` (stereo not drawn): the EC50 is > 35 µM (inactive).

For `CCC(Sc1nc(C)cc(=O)[nH]1)C(=O)Nc1sc2c(c1C#N)CCCC2` (stereo not drawn), the EC50 was > 35 µM (inactive).

With `O=C(NCc1cccs1)C1CC(=O)N(C2CCCC2)C1` (stereo not drawn), the EC50 is > 35 µM (inactive).

`COc1ccc2cc3c(N)nn(C(=O)Cc4c[nH]c5ccccc45)c3nc2c1`: the EC50 was > 35 µM (inactive).

For the compound `COC(=O)/C(C#N)=C/c1c(N2CCN(Cc3ccc4c(c3)OCO4)CC2)nc2c(C)cccn2c1=O`, the EC50 was > 35 µM (inactive).

As to `Cc1ccc2nc(-c3ccccc3NC(=O)CCC(=O)O)c(=O)[nH]c2c1`, the EC50 was > 35 µM (inactive).

As for `COc1ccc(NC(=S)Nc2ccccn2)c(OC)c1`, the EC50 is > 35 µM (inactive).

Take `Cn1c(N/N=C/c2cc3ccccc3nc2Cl)nc2ccccc21`: the EC50 is 18.1 µM.

Regarding `Cc1ccc(CNc2ccc3c(c2)nc(C)n3C)cc1`, the EC50 was > 35 µM (inactive).

Regarding `O=C(NCCc1ccccc1)c1cc(-c2ccco2)on1`, the EC50 is 10.8 µM.

`Cc1ccc(/C=C(\C#N)c2nn(-c3ccccc3)c(N)c2C#N)cc1`: the EC50 was > 35 µM (inactive).

For the compound `CC(C)Cn1c(/C=N/Nc2nc3ccccc3[nH]2)nc2ccccc21`, the 50% effective concentration (EC50) was 9.05 µM.

With `Cc1ccc(C2(C)NC(=O)N(CC(=O)Nc3ccccc3N3CCCC3)C2=O)cc1` (stereo not drawn), the EC50 was > 35 µM (inactive).

`COc1cccc(C(NC(C)=O)c2ccc3cccnc3c2O)c1` (stereo not drawn): the EC50 is 5.94 µM.

For the compound `CCOC(=O)c1sc(Nc2cccc(Cl)c2)nc1C`, the EC50 is > 35 µM (inactive).

Turning to `O=C(N/N=C/C(Br)=C\c1ccccc1)c1n[nH]c2c1CCC2`, the EC50 was 7.85 µM.

For the compound `CS(=O)(=O)c1cccc(C(=O)N(CCc2ccccc2)Cc2cccs2)c1`, the EC50 is > 35 µM (inactive).

Take `CN(CC(=O)Nc1ccccc1Oc1ccccc1)Cc1ccccc1F`: the EC50 was > 35 µM (inactive).

Take `Cc1ccccc1Nc1c(-c2ccccn2)nc2ccccn12`: the EC50 is 8.61 µM.

For `Cc1cc(N/C=C/C(=O)c2ccc(Br)cc2)no1`, the EC50 is > 35 µM (inactive).

`CCc1ccc(NC(=O)COC(=O)c2cccs2)cc1`: the EC50 is > 35 µM (inactive).

On to `COc1ccccc1N1CCN(CCCNC(=O)C2CCCN(c3ncnc4c3nc3n4CCCCC3)C2)CC1` (stereo not drawn), for which the EC50 is > 35 µM (inactive).

In the case of `c1ccc(OCc2nc(-c3ccncc3)no2)cc1`, the EC50 is > 35 µM (inactive).

`COc1ccc(C/C(C)=N/NS(=O)(=O)c2ccc(Br)cc2)cc1`: the EC50 was > 35 µM (inactive).

Regarding `Oc1ccc(CN2CCC(Cc3ccccc3)CC2)c2cccnc12`, the EC50 is 5.17 µM.

Take `CCN1CCN(c2ncnc3ccc(Br)cc23)CC1`: the EC50 was > 35 µM (inactive).

As for `O=C(NCCc1ccccc1)c1cc2sccc2n1Cc1ccccc1`, the EC50 was > 35 µM (inactive).

Regarding `Cc1cc(=O)oc2cc(OCC(=O)N3CCN(c4ccc(F)cc4)CC3)ccc12`, the EC50 is > 35 µM (inactive).

As to `COc1ccc(/C(C)=N/NC(=O)c2cccc(S(=O)(=O)N3CCCC3)c2)c(O)c1`, the EC50 was 5.8 µM.

On to `C=CCNC(=S)N/N=C(\C)c1ccccn1`, for which the EC50 is 6.53 µM.

As to `COc1ccccc1CNC(=O)c1cccc(NC(=O)c2ccccc2)c1`, the EC50 was > 35 µM (inactive).

In the case of `CCCCCCCC1CC(=O)C=C(C)C1C(=O)OCC` (stereo not drawn), the EC50 was > 35 µM (inactive).

Regarding `COc1ccc(CCNC(=O)COC(=O)CCC(=O)c2ccc(F)cc2)cc1OC`, the EC50 is > 35 µM (inactive).

As for `Cc1ccc(CNC(=O)NC2CCCCC2)cc1`, the EC50 was > 35 µM (inactive).

Turning to `O=C(NCCc1ccccc1)C1CCN(S(=O)(=O)c2ccc(-n3cnnn3)cc2)CC1`, the EC50 was > 35 µM (inactive).

Turning to `O=C(c1ccc(F)cc1)N(Cc1cccs1)C1CCS(=O)(=O)C1` (stereo not drawn), the EC50 was > 35 µM (inactive).

As for `Cn1c(SCC(=O)c2ccccc2)nnc1-c1ccco1`, the EC50 is > 35 µM (inactive).

On to `COc1ccccc1N=Nc1ccc(O)c2ncccc12`, for which the EC50 is 7.58 µM.

For orientation: EC50 means the concentration that produces a half-maximal response.
